How the values were obtained:
[1] = target: T1, Amine oxidase [flavin-containing] B (Homo sapiens, UniProt P27338); test: Inhibition of MAO-B (unknown origin) using p-tyramine substrate by HPLC method
T1 sequence (P27338 whole entry): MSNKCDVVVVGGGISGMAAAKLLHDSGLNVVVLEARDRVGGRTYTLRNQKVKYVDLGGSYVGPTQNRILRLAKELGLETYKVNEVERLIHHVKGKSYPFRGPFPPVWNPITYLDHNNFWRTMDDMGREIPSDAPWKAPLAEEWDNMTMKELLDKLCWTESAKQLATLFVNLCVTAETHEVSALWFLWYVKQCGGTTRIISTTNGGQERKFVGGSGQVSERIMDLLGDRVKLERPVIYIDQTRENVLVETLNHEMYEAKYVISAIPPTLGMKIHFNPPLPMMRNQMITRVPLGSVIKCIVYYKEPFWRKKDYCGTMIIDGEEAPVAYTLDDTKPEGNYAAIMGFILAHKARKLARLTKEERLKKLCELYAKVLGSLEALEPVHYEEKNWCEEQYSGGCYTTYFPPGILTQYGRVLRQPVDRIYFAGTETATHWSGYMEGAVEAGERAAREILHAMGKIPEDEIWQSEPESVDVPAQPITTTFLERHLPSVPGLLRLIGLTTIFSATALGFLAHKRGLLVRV

[2] = target: T1, Amine oxidase [flavin-containing] B; test: Inhibition of human recombinant MAO-B expressed in insect cells by Amplex Red assay; format: cell-based
[3] = target: T1, Amine oxidase [flavin-containing] B; test: Inhibition of human recombinant MAO-B expressed in insect cells at 10 uM by Amplex Red assay; details: read-out: INH
[4] = target: T1, Amine oxidase [flavin-containing] B; test: Inhibition of MAO-B (unknown origin)

IC50 [1] [µM]	Structure (SMILES)	further results
18.3	COc1cc(/C=C/C(=O)C2=Cc3cc(OC)ccc3OC2)cc(OC)c1	
42.8	COc1ccccc1C(=O)/C=C/C1=Cc2cc(Br)ccc2OC1	
35.9	COc1cccc(C(=O)/C=C/C2=Cc3cc(Br)ccc3OC2)c1	
16.7	COc1cc(OC)cc(C(=O)/C=C/C2=Cc3cc(Br)ccc3OC2)c1	
	O=c1c(Cc2ccc(Cl)cc2)coc2cc(Cl)cc(Cl)c12	IC50 [4]: 437 nM

Structure (SMILES)	IC50 [1] [µM]	further results
COc1ccc2c(c1)C=C(/C=C/C(=O)c1ccccc1OC)CO2	13.7	IC50 [2]: 320 nM; inhibition at 10 µM [3]: 91.6%
